# Measurements from patent US8575197B2, “Pyrolinone derivative and pharmaceutical composition comprising the same” (Shionogi & Co., Ltd., priority 2008, dated 2013).
# pIC50: −log10 of the molar value.
# Target: human P2X3 receptor (Homo sapiens (Human), UniProt P56373)
# Test: P2X3 receptor inhibition, ATP-evoked Fluo-3 calcium fluorescence (FDSS 3000)
# Format: cell-based
# Details: C6BU-1 cell transfected with human P2X3 receptor gene; ATP-evoked Fluo-3 fluorescence
# Method in brief: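 C6BU-1 cells stably transfected with human P2X3, loaded with 4 μM Fluo-3-AM for 1 h at 37 °C in HEPES buffer pH 7.5 with probenecid. Compound added 5 min before 40 nM ATP solution; fluorescence followed 3 min. IC50 from ratio of peak post-ATP to baseline fluorescence.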
# human P2X3 receptor, sequence (P56373 whole entry): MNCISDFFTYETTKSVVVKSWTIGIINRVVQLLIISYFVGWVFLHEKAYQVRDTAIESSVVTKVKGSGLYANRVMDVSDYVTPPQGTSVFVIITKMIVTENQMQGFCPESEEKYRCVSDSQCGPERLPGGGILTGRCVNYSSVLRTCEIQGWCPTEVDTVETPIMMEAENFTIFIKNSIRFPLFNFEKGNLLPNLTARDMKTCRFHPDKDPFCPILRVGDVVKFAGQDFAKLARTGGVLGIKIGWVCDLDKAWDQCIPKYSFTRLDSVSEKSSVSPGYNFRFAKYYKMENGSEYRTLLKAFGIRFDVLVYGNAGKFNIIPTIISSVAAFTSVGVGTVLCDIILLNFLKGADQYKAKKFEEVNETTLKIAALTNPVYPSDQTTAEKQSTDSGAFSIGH
row,SMILES,pIC50
1,CCOc1ccccc1C1C(C(=O)CC(C)C)=C(O)C(=O)N1c1ccc(-c2ccoc2)cc1 (stereo not shown) [Compound I-347],7.33
2,COCCOc1ccccc1C1C(C(=O)CC(C)C)=C(O)C(=O)N1c1ccc(-c2ccoc2)cc1 (stereo not shown) [Compound I-348],7.26
3,COCOc1ccccc1C1C(C(=O)CC(C)C)=C(O)C(=O)N1c1ccc(-c2ccoc2)cc1 (stereo not shown) [Compound I-349],7.43
4,COc1ccccc1C1C(C(=O)CC(C)C)=C(O)C(=O)N1c1ccc(-c2ccoc2)cc1 (stereo not shown) [Compound I-351],7.00
5,COCc1ccccc1C1C(C(=O)C(C)C)=C(O)C(=O)N1c1ccc2c(c1)cc(C)n2C (stereo not shown) [Compound I-353],6.68
6,COCc1ccccc1C1C(C(=O)C(C)C)=C(O)C(=O)N1c1ccc(-c2ccco2)cc1 (stereo not shown) [Compound I-354],7.24
7,COCc1ccccc1C1C(C(=O)CC(C)C)=C(O)C(=O)N1c1ccc(-c2ccco2)cc1 (stereo not shown) [Compound I-355],7.36
8,COCc1ccccc1[C@@H]1C(C(=O)CC(C)C)=C(O)C(=O)N1c1ccc(-c2ccsc2)cc1 [Compound I-356],8.15
9,COCCOc1ncccc1C1C(C(=O)C(C)C)=C(O)C(=O)N1c1ccc(-c2ccc(C)o2)cc1 (stereo not shown) [Compound I-357],7.70
10,COCCOc1cc(F)ccc1C1C(C(=O)CC(C)C)=C(O)C(=O)N1c1ccc(-c2ccsc2)cc1 (stereo not shown) [Compound I-364],8.05
11,COCCOc1cc(F)ccc1C1C(C(=O)CC(C)C)=C(O)C(=O)N1c1ccc(-c2noc(C)n2)cc1 (stereo not shown) [Compound I-365],7.09
12,COCCOc1cc(F)ccc1C1C(C(=O)C(C)C)=C(O)C(=O)N1c1ccc(-c2ccoc2)cc1 (stereo not shown) [Compound I-367],7.72
13,COc1ncccc1C1C(C(=O)CC(C)C)=C(O)C(=O)N1c1ccc(-c2csc(C)c2)cc1 (stereo not shown) [Compound I-371],6.35
14,COCOc1ccccc1C1C(C(=O)CC(C)C)=C(O)C(=O)N1c1ccc(-c2csc(C)c2)cc1 (stereo not shown) [Compound I-372],7.46
15,Cc1cc(-c2ccc(N3C(=O)C(O)=C(C(=O)CC(C)C)C3c3ccccc3OC(C)C)cc2)cs1 (stereo not shown) [Compound I-373],7.29
16,Cc1cc(-c2ccc(N3C(=O)C(O)=C(C(=O)CC(C)C)C3c3ccccc3OCCO)cc2)cs1 (stereo not shown) [Compound I-374],7.40
17,COCCOc1ccccc1C1C(C(=O)CC(C)C)=C(O)C(=O)N1c1ccc(-c2csc(C)c2)cc1 (stereo not shown) [Compound I-375],7.52
18,COCc1ccccc1C1C(C(=O)CC(C)C)=C(O)C(=O)N1c1ccc(-c2csc(C)c2)cc1 (stereo not shown) [Compound I-376],7.60

row,SMILES,pIC50
1,Cc1cc(-c2ccc(N3C(=O)C(O)=C(C(=O)CC(C)C)C3c3ccccc3OC(F)F)cc2)cs1 (stereo not shown) [Compound I-377],6.83
2,Cc1cc(-c2ccc(N3C(=O)C(O)=C(C(=O)CC(C)C)C3c3ccccc3OC(F)(F)F)cc2)cs1 (stereo not shown) [Compound I-378],6.72
3,COCc1ccccc1C1C(C(=O)CC(C)C)=C(O)C(=O)N1c1ccc(-c2ccc(C)o2)cc1 (stereo not shown) [Compound I-380],8.15
4,COCCOc1ccccc1C1C(C(=O)CC(C)C)=C(O)C(=O)N1c1ccc(-c2ccc(C)o2)cc1 (stereo not shown) [Compound I-381],8.15
5,COCCOc1ncccc1[C@@H]1C(C(=O)C(C)C)=C(O)C(=O)N1c1ccc(-c2ccsc2)cc1 [Compound I-395],8.22
6,Cc1ccc(-c2ccc(N3C(=O)C(O)=C(C(=O)C(C)C)C3c3ccccc3C(=O)N(C)C)cc2)o1 (stereo not shown) [Compound I-397],6.91
7,Cc1ccc(-c2ccc(N3C(=O)C(O)=C(C(=O)CC(C)C)C3c3ccccc3OC(C)C)cc2)o1 (stereo not shown) [Compound I-398],7.85
8,Cc1ccc(-c2ccc(N3C(=O)C(O)=C(C(=O)C(C)C)C3c3ccccc3OC(C)C)cc2)s1 (stereo not shown) [Compound I-400],7.66
9,Cc1ccc(-c2ccc(N3C(=O)C(O)=C(C(=O)CC(C)C)C3c3ccccc3OC(C)C)cc2)s1 (stereo not shown) [Compound I-402],7.10
10,Cc1cc(-c2ccc(N3C(=O)C(O)=C(C(=O)CC(C)C)C3c3ccccc3C(=O)N(C)C)cc2)cs1 (stereo not shown) [Compound I-404],7.15
11,Cc1ccc(-c2ccc(N3C(=O)C(O)=C(C(=O)CC(C)C)C3c3ccccc3C(=O)N(C)C)cc2)s1 (stereo not shown) [Compound I-406],7.54
12,COc1ccccc1C1C(C(=O)CC(C)C)=C(O)C(=O)N1c1ccc(C2=NCCS2)cc1 (stereo not shown) [Compound I-412],6.51
13,CC(C)CC(=O)C1=C(O)C(=O)N(c2ccc(C3=NCCS3)cc2)C1c1ccccc1OC(C)C (stereo not shown) [Compound I-413],7.38
14,COc1ccccc1C1C(C(=O)C(C)C)=C(O)C(=O)N1c1ccc(-c2cscn2)cc1 (stereo not shown) [Compound I-416],6.49
15,COCCOc1ccccc1C1C(C(=O)C(C)C)=C(O)C(=O)N1c1ccc(-c2cscn2)cc1 (stereo not shown) [Compound I-417],6.74
16,Cc1cc(-c2ccc(N3C(=O)C(O)=C(C(=O)C(C)C)C3c3ccccc3OC(C)C)cc2)cs1 (stereo not shown) [Compound I-419],7.49
17,COc1ccccc1C1C(C(=O)CC(C)C)=C(O)C(=O)N1c1ccc(-c2cscn2)cc1 (stereo not shown) [Compound I-420],6.59

# The next lines start with the values.
row,pIC50,SMILES
1,6.23,Cc1cc(-c2ccc(N3C(=O)C(O)=C(C(=O)CC(C)C)C3c3ccccc3OC(F)(F)F)cc2)on1 (stereo not shown) [Compound I-344]
2,6.00,Cc1cc(-c2ccc(N3C(=O)C(O)=C(C(=O)CC(C)C)C3c3ccccc3OCCO)cc2)on1 (stereo not shown) [Compound I-345]
3,6.17,COCCOc1ccccc1C1C(C(=O)CC(C)C)=C(O)C(=O)N1c1ccc(-c2cc(C)no2)cc1 (stereo not shown) [Compound I-346]
4,7.18,CC(C)CC(=O)C1=C(O)C(=O)N(c2ccc(-c3ccoc3)cc2)C1c1ccccc1OCCO (stereo not shown) [Compound I-350]
5,7.60,Cc1ccc(-c2ccc(N3C(=O)C(O)=C(C(=O)C(C)C)C3c3ccccc3OC(F)F)cc2)o1 (stereo not shown) [Compound I-358]
6,7.62,Cc1ccc(-c2ccc(N3C(=O)C(O)=C(C(=O)C(C)C)C3c3ccccc3OC(F)(F)F)cc2)o1 (stereo not shown) [Compound I-359]
7,7.68,COCCOc1ncccc1C1C(C(=O)CC(C)C)=C(O)C(=O)N1c1ccc(-c2ccc(C)o2)cc1 (stereo not shown) [Compound I-360]
8,7.32,Cc1ccc(-c2ccc(N3C(=O)C(O)=C(C(=O)CC(C)C)C3c3ccccc3OC(F)F)cc2)o1 (stereo not shown) [Compound I-361]
9,7.40,Cc1ccc(-c2ccc(N3C(=O)C(O)=C(C(=O)CC(C)C)C3c3ccccc3OC(F)(F)F)cc2)o1 (stereo not shown) [Compound I-362]
10,8.15,COCCOc1cc(F)ccc1C1C(C(=O)C(C)C)=C(O)C(=O)N1c1ccc(-c2ccsc2)cc1 (stereo not shown) [Compound I-363]
11,7.89,CC(C)CC(=O)C1=C(O)C(=O)N(c2ccc(-c3ccsc3)cc2)C1c1ccccc1OCCCO (stereo not shown) [Compound I-366]
12,7.80,COCCOc1cc(F)ccc1C1C(C(=O)CC(C)C)=C(O)C(=O)N1c1ccc(-c2ccoc2)cc1 (stereo not shown) [Compound I-368]
13,7.04,COCCOc1cc(F)ccc1C1C(C(=O)C(C)C)=C(O)C(=O)N1c1ccc(-c2noc(C)n2)cc1 (stereo not shown) [Compound I-369]
14,6.71,Cc1cc(-c2ccc(N3C(=O)C(O)=C(C(=O)CC(C)C)C3c3ccccc3OC(C)C)cc2)on1 (stereo not shown) [Compound I-370]
15,6.93,COc1ccccc1C1C(C(=O)CC(C)C)=C(O)C(=O)N1c1ccc(-c2csc(C)c2)cc1 (stereo not shown) [Compound I-379]
16,8.22,COCOc1ccccc1C1C(C(=O)CC(C)C)=C(O)C(=O)N1c1ccc(-c2ccc(C)o2)cc1 (stereo not shown) [Compound I-382]
17,7.44,COc1ccccc1C1C(C(=O)CC(C)C)=C(O)C(=O)N1c1ccc(-c2ccc(C)o2)cc1 (stereo not shown) [Compound I-383]
18,7.72,Cc1ccc(-c2ccc(N3C(=O)C(O)=C(C(=O)CC(C)C)C3c3ccccc3OCCO)cc2)o1 (stereo not shown) [Compound I-384]

row,pIC50,SMILES
1,6.64,COCc1ccccc1C1C(C(=O)C(C)C)=C(O)C(=O)N1c1ccc2sc(C)nc2c1 (stereo not shown) [Compound I-385]
2,6.16,COCCOc1ccccc1C1C(C(=O)CC(C)C)=C(O)C(=O)N1c1ccc(-c2coc(C)n2)cc1 (stereo not shown) [Compound I-391]
3,6.02,COCc1ccccc1C1C(C(=O)CC(C)C)=C(O)C(=O)N1c1ccc(-c2coc(C)n2)cc1 (stereo not shown) [Compound I-392]
4,7.82,COCc1ccccc1[C@@H]1C(C(=O)C(C)C)=C(O)C(=O)N1c1ccc(-c2ccc(C)s2)cc1 [Compound I-393]
5,7.96,COCc1ccccc1[C@@H]1C(C(=O)C(C)C)=C(O)C(=O)N1c1ccc(-c2cccs2)cc1 [Compound I-394]
6,8.15,Cc1ccc(-c2ccc(N3C(=O)C(O)=C(C(=O)C(C)C)C3c3ccccc3OC(C)C)cc2)o1 (stereo not shown) [Compound I-396]
7,7.36,Cc1ccc(-c2ccc(N3C(=O)C(O)=C(C(=O)CC(C)C)C3c3ccccc3C(=O)N(C)C)cc2)o1 (stereo not shown) [Compound I-399]
8,7.10,Cc1ccc(-c2ccc(N3C(=O)C(O)=C(C(=O)C(C)C)C3c3ccccc3C(=O)N(C)C)cc2)s1 (stereo not shown) [Compound I-401]
9,7.51,CC(C)CC(=O)C1=C(O)C(=O)N(c2ccc(-c3ccsc3)cc2)C1c1ccccc1C(=O)N(C)C (stereo not shown) [Compound I-405]
10,7.74,CC(C)CC(=O)C1=C(O)C(=O)N(c2ccc(-c3ccoc3)cc2)C1c1ccccc1OC(C)C (stereo not shown) [Compound I-408]
11,6.75,Cc1cc(-c2ccc(N3C(=O)C(O)=C(C(=O)C(C)C)C3c3ccccc3C(=O)N(C)C)cc2)cs1 (stereo not shown) [Compound I-409]
12,6.82,COCCOc1ccccc1C1C(C(=O)CC(C)C)=C(O)C(=O)N1c1ccc(C2=NCCS2)cc1 (stereo not shown) [Compound I-410]
13,6.57,COCc1ccccc1C1C(C(=O)CC(C)C)=C(O)C(=O)N1c1ccc(C2=NCCS2)cc1 (stereo not shown) [Compound I-414]
14,6.23,COCc1ccccc1C1C(C(=O)C(C)C)=C(O)C(=O)N1c1ccc(-c2cscn2)cc1 (stereo not shown) [Compound I-418]
15,6.72,COCCOc1ccccc1C1C(C(=O)CC(C)C)=C(O)C(=O)N1c1ccc(-c2cscn2)cc1 (stereo not shown) [Compound I-421]
16,6.44,COCc1ccccc1C1C(C(=O)CC(C)C)=C(O)C(=O)N1c1ccc(-c2cscn2)cc1 (stereo not shown) [Compound I-422]
17,6.28,COCCOc1ccccc1C1C(C(=O)C(C)C)=C(O)C(=O)N1c1ccc(-c2csc(C)n2)cc1 (stereo not shown) [Compound I-424]
